Reference: patent publication US20230312576A1, “4-(7H-PYRROLO[2,3-D]PYRIMIDIN-4-YL)-3,6-DIHYDROPYRIDINE-1-(2H)-CARBOXAMIDE DERIVATIVES AS LIMK AND/OR ROCK KINASES INHIBITORS FOR USE IN THE TREATMENT OF CANCER” (CENTRE NATIONAL DE LA RECHERCHE SCIENTIFIQUE, priority 2020, published 2023)
Like-named read-outs stand apart in the source and are kept apart here.

Columns and labels:
ROCK2 = ROCK2 (Homo sapiens (Human), UniProt O75116); experiment: Z'Lyte assay, ROCK2 inhibition at a single concentration; assay type: biochemical
LIMK1 = LIMK1 (Homo sapiens (Human), UniProt P53667); experiment: Lanthascreen Eu binding assay (TR-FRET), inhibition of LIMK1
LIMK2 = LIMK2 (Homo sapiens (Human), UniProt P53671); experiment: Lanthascreen Eu binding assay (TR-FRET), inhibition of LIMK2
ROCK1 = ROCK1 (Homo sapiens (Human), UniProt Q13464); experiment: Z'Lyte assay, ROCK1 inhibition at a single concentration; assay type: biochemical
[1] = read-out: % inhibition (ROCK2) 1 uM, 1 uM
[2] = read-out: % inhibition (ROCK1) 1 uM, 1 uM
[3] = read-out: % inhibition (ROCK2) 1 uM
[4] = read-out: % inhibition (ROCK1) 1 uM

ROCK2, sequence (O75116 whole entry): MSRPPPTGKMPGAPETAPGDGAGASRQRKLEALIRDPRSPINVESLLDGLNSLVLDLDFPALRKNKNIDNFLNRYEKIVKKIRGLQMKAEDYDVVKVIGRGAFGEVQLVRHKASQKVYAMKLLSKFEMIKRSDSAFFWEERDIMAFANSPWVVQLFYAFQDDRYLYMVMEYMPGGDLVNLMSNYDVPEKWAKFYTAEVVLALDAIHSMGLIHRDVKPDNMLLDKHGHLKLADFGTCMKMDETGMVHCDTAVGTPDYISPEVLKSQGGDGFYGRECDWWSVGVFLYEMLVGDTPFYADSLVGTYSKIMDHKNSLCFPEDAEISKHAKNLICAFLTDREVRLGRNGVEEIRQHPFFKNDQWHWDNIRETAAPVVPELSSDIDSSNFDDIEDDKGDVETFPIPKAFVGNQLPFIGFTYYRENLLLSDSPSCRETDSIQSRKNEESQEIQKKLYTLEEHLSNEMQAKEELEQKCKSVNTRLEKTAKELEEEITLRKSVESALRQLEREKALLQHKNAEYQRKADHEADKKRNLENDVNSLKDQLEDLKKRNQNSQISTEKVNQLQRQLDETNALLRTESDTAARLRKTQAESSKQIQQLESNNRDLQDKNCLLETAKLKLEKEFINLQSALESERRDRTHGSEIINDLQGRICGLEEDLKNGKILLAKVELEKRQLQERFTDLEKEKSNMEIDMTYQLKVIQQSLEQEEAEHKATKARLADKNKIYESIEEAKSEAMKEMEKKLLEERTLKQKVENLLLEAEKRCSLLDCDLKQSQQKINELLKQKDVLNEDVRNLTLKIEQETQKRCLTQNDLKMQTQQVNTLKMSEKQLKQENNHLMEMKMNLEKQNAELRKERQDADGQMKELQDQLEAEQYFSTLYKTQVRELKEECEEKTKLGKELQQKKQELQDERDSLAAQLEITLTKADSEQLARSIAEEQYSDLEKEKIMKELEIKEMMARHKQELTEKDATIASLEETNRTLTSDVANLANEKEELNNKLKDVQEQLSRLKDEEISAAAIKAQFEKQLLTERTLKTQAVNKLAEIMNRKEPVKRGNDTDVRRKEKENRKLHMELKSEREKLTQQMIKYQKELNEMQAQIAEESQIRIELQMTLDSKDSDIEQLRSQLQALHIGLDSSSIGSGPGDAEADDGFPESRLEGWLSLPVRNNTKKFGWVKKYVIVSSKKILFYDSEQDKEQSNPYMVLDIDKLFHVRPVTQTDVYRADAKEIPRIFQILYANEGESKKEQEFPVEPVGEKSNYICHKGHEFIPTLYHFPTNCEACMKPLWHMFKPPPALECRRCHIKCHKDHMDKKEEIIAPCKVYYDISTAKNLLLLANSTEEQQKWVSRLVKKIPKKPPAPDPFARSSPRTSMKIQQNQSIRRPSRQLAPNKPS
LIMK2, sequence (P53671 whole entry): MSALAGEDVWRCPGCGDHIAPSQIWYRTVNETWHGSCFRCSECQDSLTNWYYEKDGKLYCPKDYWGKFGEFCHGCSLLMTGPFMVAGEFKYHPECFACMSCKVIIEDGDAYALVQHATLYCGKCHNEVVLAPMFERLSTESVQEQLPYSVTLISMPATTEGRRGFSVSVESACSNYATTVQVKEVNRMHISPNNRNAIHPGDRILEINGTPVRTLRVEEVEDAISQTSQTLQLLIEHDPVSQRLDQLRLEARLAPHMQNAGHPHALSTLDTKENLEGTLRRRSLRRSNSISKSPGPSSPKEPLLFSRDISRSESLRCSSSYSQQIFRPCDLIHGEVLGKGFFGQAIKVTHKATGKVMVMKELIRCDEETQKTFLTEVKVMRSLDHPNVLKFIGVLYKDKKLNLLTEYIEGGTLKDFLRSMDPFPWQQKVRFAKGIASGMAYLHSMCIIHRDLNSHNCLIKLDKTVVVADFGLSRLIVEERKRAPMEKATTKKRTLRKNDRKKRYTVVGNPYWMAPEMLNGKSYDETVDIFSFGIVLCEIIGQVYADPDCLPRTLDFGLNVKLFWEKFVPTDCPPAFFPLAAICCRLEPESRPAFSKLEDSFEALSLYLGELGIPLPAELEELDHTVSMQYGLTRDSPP
LIMK1, sequence (P53667 whole entry): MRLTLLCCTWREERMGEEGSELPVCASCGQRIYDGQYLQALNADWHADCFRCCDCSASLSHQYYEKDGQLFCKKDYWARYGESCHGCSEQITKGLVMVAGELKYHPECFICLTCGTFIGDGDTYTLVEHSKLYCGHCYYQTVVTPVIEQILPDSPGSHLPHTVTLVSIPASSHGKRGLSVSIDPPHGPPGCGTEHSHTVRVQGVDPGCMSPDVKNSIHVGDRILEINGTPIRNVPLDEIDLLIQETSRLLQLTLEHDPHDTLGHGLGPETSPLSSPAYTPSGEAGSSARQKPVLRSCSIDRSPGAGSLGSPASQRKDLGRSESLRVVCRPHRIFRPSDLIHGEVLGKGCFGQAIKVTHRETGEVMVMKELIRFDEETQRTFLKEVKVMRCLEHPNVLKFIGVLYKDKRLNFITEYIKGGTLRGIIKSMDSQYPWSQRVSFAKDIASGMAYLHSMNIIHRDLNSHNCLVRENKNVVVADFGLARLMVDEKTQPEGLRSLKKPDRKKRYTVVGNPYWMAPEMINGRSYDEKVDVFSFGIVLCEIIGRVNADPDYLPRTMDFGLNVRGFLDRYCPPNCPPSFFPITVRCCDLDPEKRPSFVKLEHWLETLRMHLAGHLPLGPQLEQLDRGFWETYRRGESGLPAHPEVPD
ROCK1, sequence (Q13464 whole entry): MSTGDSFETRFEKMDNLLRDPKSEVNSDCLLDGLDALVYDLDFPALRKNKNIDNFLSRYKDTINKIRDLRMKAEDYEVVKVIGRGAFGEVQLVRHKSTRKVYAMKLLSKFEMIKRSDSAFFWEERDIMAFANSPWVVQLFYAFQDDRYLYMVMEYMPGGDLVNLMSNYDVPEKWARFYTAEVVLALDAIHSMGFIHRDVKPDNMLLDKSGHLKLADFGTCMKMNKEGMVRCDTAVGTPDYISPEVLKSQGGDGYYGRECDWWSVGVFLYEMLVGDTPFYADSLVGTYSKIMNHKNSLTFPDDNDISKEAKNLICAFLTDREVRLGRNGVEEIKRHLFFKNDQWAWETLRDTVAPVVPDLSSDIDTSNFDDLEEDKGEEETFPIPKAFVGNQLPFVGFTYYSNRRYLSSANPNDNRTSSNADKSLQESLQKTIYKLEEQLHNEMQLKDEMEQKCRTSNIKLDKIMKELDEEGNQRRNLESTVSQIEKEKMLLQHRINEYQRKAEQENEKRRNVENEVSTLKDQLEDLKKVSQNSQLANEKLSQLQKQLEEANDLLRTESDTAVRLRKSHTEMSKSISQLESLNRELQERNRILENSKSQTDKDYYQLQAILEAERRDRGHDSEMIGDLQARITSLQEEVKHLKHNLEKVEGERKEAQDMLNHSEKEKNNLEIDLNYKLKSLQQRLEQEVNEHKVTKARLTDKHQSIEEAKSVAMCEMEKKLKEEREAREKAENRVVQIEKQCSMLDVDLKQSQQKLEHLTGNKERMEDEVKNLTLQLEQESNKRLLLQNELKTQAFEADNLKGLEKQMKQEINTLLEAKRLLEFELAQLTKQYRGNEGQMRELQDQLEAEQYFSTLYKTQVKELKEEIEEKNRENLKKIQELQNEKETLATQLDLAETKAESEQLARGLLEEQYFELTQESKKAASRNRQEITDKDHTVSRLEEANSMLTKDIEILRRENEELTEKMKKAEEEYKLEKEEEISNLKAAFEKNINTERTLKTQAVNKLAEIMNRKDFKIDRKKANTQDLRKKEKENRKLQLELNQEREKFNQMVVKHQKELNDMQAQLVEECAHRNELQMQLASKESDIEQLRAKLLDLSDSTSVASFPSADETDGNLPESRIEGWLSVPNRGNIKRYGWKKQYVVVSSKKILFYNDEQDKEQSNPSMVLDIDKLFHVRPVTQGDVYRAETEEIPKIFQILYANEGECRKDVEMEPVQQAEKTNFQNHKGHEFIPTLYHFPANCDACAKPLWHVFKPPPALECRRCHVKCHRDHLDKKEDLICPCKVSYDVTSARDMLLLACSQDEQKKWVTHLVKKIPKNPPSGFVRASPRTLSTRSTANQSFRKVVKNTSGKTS

Structure (SMILES)	inhibition at 1 µM (ROCK2; [1])	Ki (LIMK1; Lanthascreen Eu binding assay)	Ki (LIMK2; Lanthascreen Eu binding assay)	inhibition at 1 µM (ROCK1; [2])	also measured
Cc1c[nH]c2ncnc(C3=CCN(C(=O)Nc4cccc(Oc5ccc(N(C)C)cc5)c4)CC3)c12 [Compound 42, N-[3-[4-(Dimethylamino)phenoxy]phenyl]-4-(5-methyl-7H-pyrrolo[2,3-d]pyrimidin-4-yl)-3,6-dihydro-2H-pyridine-1-carboxamide]	31%	30.7 nM	53.3 nM	37%	
Cc1c[nH]c2ncnc(C3=CCN(C(=O)Nc4ccc(Oc5ccccc5)cc4)CC3)c12 [Compound 16, 4-(5-Methyl-7H-pyrrolo[2,3-d]pyrimidin-4-yl)-N-(4-phenoxy-phenyl)-3,6-dihydropyridine-1(2H)-carboxamide]		80.1 nM	341 nM		% inhibition (ROCK2) 1 uM (ROCK2; 1 uM): 14%; % inhibition (ROCK1) 1 uM (ROCK1; 1 uM): 15%
Cc1c[nH]c2ncnc(C3=CCN(C(=O)Nc4cccc(C(=O)N5CCN(S(C)(=O)=O)CC5)c4)CC3)c12 [Compound 172, 4-(5-methyl-7H-pyrrolo[2,3-d]pyrimidin-4-yl)-N-[3-(4-methylsulfonylpiperazine-1-carbonyl)phenyl]-3,6-dihydro-2H-pyridine-1-carboxamide]	78%	1080 nM	2540 nM	88%	
CC(C)(C)OC(=O)NCCCOc1cccc(-c2cccc(NC(=O)N3CC=C(c4ncnc5[nH]c6c(c45)CCC6)CC3)c2)c1 [Compound 164, tert-butyl (3-((3′-(4-(5,6,7,8-tetrahydrocyclopenta[4,5]pyrrolo[2,3-d]pyrimidin-4-yl)-1,2,3,6-tetrahydropyridine-1-carboxamido)-[1,1′-biphenyl]-3-yl)oxy)propyl)carbamate]	4%	48.4 nM	41.2 nM	-2%	
Cc1c[nH]c2ncnc(C3=CCN(C(=O)Nc4ccc(Oc5ccccc5)cc4)CC3)c12 [Compound 28, 4-(5-Methyl-7H-pyrrolo[2,3-d]pyrimidin-4-yl)-N-(4-phenoxy-phenyl)-3,6-dihydropyridine-1(2H)-carboxamide]		34.5 nM	43.6 nM		% inhibition (ROCK2) 1 uM (ROCK2; 1 uM): 35%; % inhibition (ROCK1) 1 uM (ROCK1; 1 uM): 76%
Cc1c[nH]c2ncnc(C3=CCN(C(=O)Nc4cccc(Oc5cccnc5)c4)CC3)c12 [Compound 208, 4-(5-methyl-7H-pyrrolo[2,3-d]pyrimidin-4-yl)-N-(3-(pyridin-3-yloxy)phenyl)-3,6-dihydropyridine-1(2H)-carboxamide]	72%	37.3 nM	7.57 nM	91%	
CN1CCc2[nH]c3ncnc(C4=CCN(C(=O)Nc5cccc(F)c5)CC4)c3c2C1 [Compound 160, N-(3-Fluorophenyl)-4-(6-methyl-6,7,8,9-tetrahydro-5H-pyrido[3′,4′:4,5]pyrrolo[2,3-d]pyrimidin-4-yl)-3,6-dihydropyridine-1(2H)-carboxamide]	-9%	1170 nM	2440 nM	1%	
Cc1c[nH]c2ncnc(C3=CCN(C(=O)NC4CCCc5ccccc54)CC3)c12 (racemic) [Compound 34-rac, 4-(5-methyl-7H-pyrrolo[2,3-d]pyrimidin-4-yl)-N-tetralin-1-yl-3,6-dihydro-2H-pyridine-1-carboxamide]		610 nM	742 nM		inhibition at 1 µM (ROCK2; [3]): 52%; inhibition at 1 µM (ROCK1; [4]): 79%
Cc1c[nH]c2ncnc(C3=CCN(C(=O)Nc4cccc(Oc5ccc(F)cc5)c4)CC3)c12 [Compound 202, N-(3-(4-fluorophenoxy)phenyl)-4-(5-methyl-7H-pyrrolo[2,3-d]pyrimidin-4-yl)-3,6-dihydropyridine-1(2H)-carboxamide]	15%	70.4 nM	68.7 nM	26%	
CN1CCc2[nH]c3ncnc(C4=CCN(C(=O)Nc5cccc(Br)c5)CC4)c3c2C1 [Compound 162, N-(3-Bromophenyl)-4-(6-methyl-6,7,8,9-tetrahydro-5H-pyrido [3′,4′:4,5]pyrrolo[2,3-d]pyrimidin-4-yl)-3,6-dihydropyridine-1(2H)-carboxamide]					inhibition at 1 µM (ROCK2; [3]): -8%; Ki (LIMK1): 722 nM; Ki (LIMK2): 1030 nM; inhibition at 1 µM (ROCK1; [4]): 4%
Cc1c[nH]c2ncnc(C3=CCN(C(=O)Nc4cccc(-n5ccnc5)c4)CC3)c12 [Compound 24, N-(3-(1H-Imidazol-1-yl)phenyl)-4-(5-methyl-7H-pyrrolo[2,3-d]pyrimidin-4-yl)-3,6-dihydropyridine-1(2H)-carboxamide]					inhibition at 1 µM (ROCK2; [3]): 25%; inhibition at 1 µM (ROCK1; [4]): 40%
Cc1c[nH]c2ncnc(C3=CCN(C(=O)Nc4cccc(-c5cccc(OCCCNC(=O)OC(C)(C)C)c5)c4)CC3)c12 [Compound 166, tert-butyl N-[3-[3-[3-[[4-(5-methyl-7H-pyrrolo[2,3-d]pyrimidin-4-yl)-3,6-di hydro-2H-pyridine-1-carbonyl]amino]phenyl]phenoxy]propyl]carbamate]	2%	94.6 nM	122 nM	12%	
CCc1cccc(NC(=O)N2CC=C(c3ncnc4[nH]cc(C)c34)CC2)c1 [Compound 20, N-(3-Ethylphenyl)-4-(5-methyl-7H-pyrrolo[2,3-d]pyrimidin-4-yl)-3,6-dihydropyridine-1(2H)-carboxamide]	28%	162 nM	193 nM	55%	
CC1=CC(C)=[N+]2C1=Cc1ccc(CCC(=O)NCCCOc3cccc(-c4cccc(NC(=O)N5CC=C(c6ncnc7[nH]cc(C)c67)CC5)c4)c3)n1[B-]2(F)F [Compound 169, N-(3′-(3-(3-(5,5-difluoro-7,9-dimethyl-5H-dipyrrolo[1,2-c:2′,1′-f][1,3,2]diazaborinin-3-yl)propanamido)propoxy)-[1,1′-biphenyl]-3-yl)-4-(5-methyl-7H-pyrrolo [2,3-d]pyrimidin-4-yl)-3,6-dihydropyridine-1(2H)-carboxamide]					% inhibition (ROCK1) 1 uM (ROCK1): 10%
O=C(NC1CCCCC1)N1CC=C(c2ncnc3[nH]cc(C4CC4)c23)CC1 [Compound 83, N-Cyclohexyl-4-(5-cyclopropyl-7H-pyrrolo[2,3-d]pyrimidin-4-yl)-3,6-dihydropyridine-1(2H)-carboxamide]	-4%	90.9 nM		6%	
Cc1c[nH]c2ncnc(C3=CCN(C(=O)Nc4ccc(Cl)c(C(F)(F)F)c4)CC3)c12 [Compound 12, N-(4-Chloro-3-(trifluoromethyl)phenyl)-4-(5-methyl-7H-pyrrolo[2,3-d]pyrimidin-4-yl)-3,6-dihydropyridine-1(2H)-carboxamide]	69%			79%	
CC1=CC(C)=[N+]2C1=Cc1ccc(CCC(=O)NCCCOc3cccc(-c4cccc(NC(=O)N5CC=C(c6ncnc7[nH]cc(C8CC8)c67)CC5)c4)c3)n1[B-]2(F)F [Compound 168, N-(3′-(3-(3-(5,5-Difluoro-7,9-dimethyl-5H-dipyrrolo[1,2-c:2′,1′-f][1,3,2]diazaborinin-3-yl)propanamido)propoxy)-[1,1′-biphenyl]-3-yl)-4-(5-isopropyl-7H-pyrrolo[2,3-d]pyrimidin-4-yl)-3,6-dihydropyridine-1(2H)-carboxamide]					% inhibition (ROCK2) 1 uM (ROCK2): 20%; % inhibition (ROCK1) 1 uM (ROCK1): 2%
Cc1c[nH]c2ncnc(C3=CCN(C(=O)Nc4ccc5c(c4)OCO5)CC3)c12 [Compound 14, N-(Benzo[d][1,3]dioxol-5-yl)-4-(5-methyl-7H-pyrrolo[2,3-d]pyrimidin-4-yl)-3,6-dihydropyridine-1(2H)-carboxamide]					inhibition at 1 µM (ROCK2; [3]): 59%; inhibition at 1 µM (ROCK1; [4]): 79%
